Patent publication US8916610B2, “Acid addition salt of a nortriptyline-GABA conjugate and a process of preparing same” (Ramot at Tel-Aviv University Ltd., priority 2010, dated 2014)
Like-named read-outs stand apart in the source and are kept apart here.

What was measured:
[1] = Description: Surface area data were collected using nitrogen absorption on a BET Micrometics Gemini V (11-point BET analysis) analyzer. The samples were outgassed at 25° C. under vacuum for at least 2 hours. SRM 1899 and SRM 1900 were used as the calibration standards.
[2] = remark: listed apart in the source
Source text: Particle size data was acquired using a Malvern Instruments MS2000 equipped with a Hydro2000μP dispersion unit. Data was collected and analyzed with Mastersizer 2000v.5.1 software, using volume based measurements. NIST traceable glass beads were used as the reference standard.
The final method conditions selected for determining the particle size of BL-1021 fumarate salts were as follows:
Dispersant: silicone oil;
Dispersant refractive index: 1.403;
The measurement of particle size of all lots was performed using the same method conditions (silicone oil as a dispersing medium, a pump speed of 1750 rpm).

[3] = remark: listed apart in the source
Source text: Samples were submitted to Particle Technology Labs (PTL), Downers Grove, Ill., for bulk and tapped density analyses.

[4] = batches after milling, listed as CC-2190.0-20.1
[5] = batches after milling, listed as CC-2190.0-21.1
[6] = batches after milling, listed as CC-2190.0-23.1
[7] = batches after milling, listed as CC-2562.0-01.1
[8] = silicone oil dispersing medium, pump speed 1750 rpm, volume based, text b315 speaks of μm
[9] = batches before and after milling

- BET surface area, Results ([1]; batch before milling): 6.58 m^2/g
- BET surface area, Results [1, 4]: 8.43 m^2/g
- BET surface area, Results [1, 5]: 10.84 m^2/g
- BET surface area, Results [1, 6]: 11.84 m^2/g
- BET surface area, Results [1, 7]: 7.45 m^2/g
- particle size distribution d10 [2, 8]: 7.0
- particle size distribution d50 [2, 8]: 93.9
- particle size distribution d90 [2, 8]: 220.8
- D90 (as stated in text, FIG. 6) ([2]; silicone oil, 1750 rpm): 200±25%
- particle size up to (upper end of bimodal distribution, FIG. 6) ([2]; silicone oil, 1750 rpm, fine tail below 1 μm): ≤ 400 μm
- Bulk density ([3]; batch before milling): 0.29 g/mL
- Tapped density ([3]; batch before milling): 0.42 g/mL
- Bulk density [3, 4]: 0.22 g/mL
- Tapped density [3, 4]: 0.35 g/mL
- Bulk density [3, 5]: 0.18 g/mL
- Tapped density [3, 5]: 0.31 g/mL
- Bulk density [3, 6]: 0.25 g/mL
- Tapped density [3, 6]: 0.39 g/mL
- Bulk density [3, 7]: 0.19 g/mL
- Tapped density [3, 7]: 0.36 g/mL
- bulk density (range over batches) [3, 9]: 0.18-0.29 gram/ml
- tapped density (range over batches) [3, 9]: 0.31-0.42 gram/ml
Compound: CN(CCC=C1c2ccccc2CCc2ccccc21)C(=O)CCCN.O=C(O)/C=C/C(=O)O [BL-1021 fumarate salt, nortriptyline-4-aminobutyrate fumarate]
